From patent publication US10023570B2 (Array BioPharma, Inc., priority 2015, dated 2018) come the findings set out here.

Counter-ions that a name gives are not always drawn. Like-named read-outs stand apart in the source and are kept apart here.

The target in experiment [1] is Kif5b-RET fusion protein in HEK-293 cells (Homo sapiens, UniProt P07949). In words: cell-based. The conditions noted are these: read-out: KIF5B-RET pTYR1062 Cell IC50.
Experiment [2] addresses N-terminal GST tagged recombinant human RET cytoplasmic domain (aa 658-end), wild type RET kinase (Homo sapiens (Human), UniProt P07949). In words: RET Enzyme Assay (HTRF KinEASE-TK), wild type RET. The format is biochemical. A general note: In TR-FRET formats the signal depends on donor and acceptor labels being close together.
Experiment [3] addresses human KDR protein in HEK-293 cells (Homo sapiens (Human), UniProt P35968). The experiment is described as follows: KDR Cell Assay (phospho-KDR in HEK-293 cells expressing inducible KDR). The class given is cell-based. Conditions: pKDR Cell HEK 10% FBS IC50, HEK-293 cells expressing inducible KDR, VEGF stimulated. Summed up: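 HEK-293 cells with inducible human KDR were treated with compound for 1 h in DMEM (0.25% DMSO final), then lysed. Phospho-KDR was quantified by Meso Scale immunoassay, expressed as percent of control, and IC50 taken where a 4-parameter logistic fit crossed 50 POC.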

[4] abbreviates: HEK-293 cells expressing Kif5b-RET.
[5] abbreviates: HEK-293 cells expressing Kif5b-RET, phospho-RET(Tyr1062).

Chain of N-terminal GST tagged recombinant human RET cytoplasmic domain (aa 658-end), wild type RET kinase (P07949 658-1114): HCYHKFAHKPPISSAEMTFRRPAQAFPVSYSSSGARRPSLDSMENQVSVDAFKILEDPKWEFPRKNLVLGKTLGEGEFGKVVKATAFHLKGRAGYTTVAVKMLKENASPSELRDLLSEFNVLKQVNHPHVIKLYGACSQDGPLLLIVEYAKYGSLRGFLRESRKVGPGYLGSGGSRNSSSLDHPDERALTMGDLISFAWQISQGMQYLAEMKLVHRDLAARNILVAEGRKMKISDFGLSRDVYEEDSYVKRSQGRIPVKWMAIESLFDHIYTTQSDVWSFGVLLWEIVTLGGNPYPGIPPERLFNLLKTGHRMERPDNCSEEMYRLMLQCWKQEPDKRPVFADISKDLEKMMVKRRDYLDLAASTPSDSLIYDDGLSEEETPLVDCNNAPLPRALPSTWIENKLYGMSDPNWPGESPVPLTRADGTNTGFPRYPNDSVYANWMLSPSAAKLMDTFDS
Chain of human KDR protein in HEK-293 cells (P35968 20-1356): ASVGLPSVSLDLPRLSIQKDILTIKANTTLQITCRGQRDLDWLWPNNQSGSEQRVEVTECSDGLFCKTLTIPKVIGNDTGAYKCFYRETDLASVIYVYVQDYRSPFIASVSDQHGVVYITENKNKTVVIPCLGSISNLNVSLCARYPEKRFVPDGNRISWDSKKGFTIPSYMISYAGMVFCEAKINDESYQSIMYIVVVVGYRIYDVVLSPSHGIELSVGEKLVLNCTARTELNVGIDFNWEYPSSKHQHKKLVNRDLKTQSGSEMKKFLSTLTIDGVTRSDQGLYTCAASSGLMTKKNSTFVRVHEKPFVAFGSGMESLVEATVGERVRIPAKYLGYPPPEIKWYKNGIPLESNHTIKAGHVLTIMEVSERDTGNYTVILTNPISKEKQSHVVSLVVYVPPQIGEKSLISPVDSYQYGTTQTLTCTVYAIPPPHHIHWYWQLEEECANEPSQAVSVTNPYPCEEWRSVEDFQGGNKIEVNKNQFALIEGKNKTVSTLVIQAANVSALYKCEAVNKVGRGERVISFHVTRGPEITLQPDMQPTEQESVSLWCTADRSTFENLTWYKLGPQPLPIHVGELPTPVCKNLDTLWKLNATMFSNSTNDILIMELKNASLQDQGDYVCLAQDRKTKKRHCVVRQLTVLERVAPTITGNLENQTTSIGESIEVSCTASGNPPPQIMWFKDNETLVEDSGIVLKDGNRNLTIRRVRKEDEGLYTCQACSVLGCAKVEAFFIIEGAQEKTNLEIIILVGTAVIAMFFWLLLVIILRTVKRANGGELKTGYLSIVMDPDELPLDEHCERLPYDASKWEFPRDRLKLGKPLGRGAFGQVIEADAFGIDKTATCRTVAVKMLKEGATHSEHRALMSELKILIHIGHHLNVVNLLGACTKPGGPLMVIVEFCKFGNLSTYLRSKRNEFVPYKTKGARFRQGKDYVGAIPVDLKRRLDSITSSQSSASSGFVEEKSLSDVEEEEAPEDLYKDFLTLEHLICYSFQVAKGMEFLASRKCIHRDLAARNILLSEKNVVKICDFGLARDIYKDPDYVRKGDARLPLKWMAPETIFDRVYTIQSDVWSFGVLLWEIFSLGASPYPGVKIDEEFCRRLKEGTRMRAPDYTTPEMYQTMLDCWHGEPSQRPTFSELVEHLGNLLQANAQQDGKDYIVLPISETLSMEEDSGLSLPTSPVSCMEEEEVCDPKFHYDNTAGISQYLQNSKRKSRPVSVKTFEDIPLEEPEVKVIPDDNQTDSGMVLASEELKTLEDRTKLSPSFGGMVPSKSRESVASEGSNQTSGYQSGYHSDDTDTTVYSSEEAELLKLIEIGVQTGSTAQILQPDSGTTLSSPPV
Chain of Kif5b-RET fusion protein in HEK-293 cells (P07949 29-1114 limits assumed): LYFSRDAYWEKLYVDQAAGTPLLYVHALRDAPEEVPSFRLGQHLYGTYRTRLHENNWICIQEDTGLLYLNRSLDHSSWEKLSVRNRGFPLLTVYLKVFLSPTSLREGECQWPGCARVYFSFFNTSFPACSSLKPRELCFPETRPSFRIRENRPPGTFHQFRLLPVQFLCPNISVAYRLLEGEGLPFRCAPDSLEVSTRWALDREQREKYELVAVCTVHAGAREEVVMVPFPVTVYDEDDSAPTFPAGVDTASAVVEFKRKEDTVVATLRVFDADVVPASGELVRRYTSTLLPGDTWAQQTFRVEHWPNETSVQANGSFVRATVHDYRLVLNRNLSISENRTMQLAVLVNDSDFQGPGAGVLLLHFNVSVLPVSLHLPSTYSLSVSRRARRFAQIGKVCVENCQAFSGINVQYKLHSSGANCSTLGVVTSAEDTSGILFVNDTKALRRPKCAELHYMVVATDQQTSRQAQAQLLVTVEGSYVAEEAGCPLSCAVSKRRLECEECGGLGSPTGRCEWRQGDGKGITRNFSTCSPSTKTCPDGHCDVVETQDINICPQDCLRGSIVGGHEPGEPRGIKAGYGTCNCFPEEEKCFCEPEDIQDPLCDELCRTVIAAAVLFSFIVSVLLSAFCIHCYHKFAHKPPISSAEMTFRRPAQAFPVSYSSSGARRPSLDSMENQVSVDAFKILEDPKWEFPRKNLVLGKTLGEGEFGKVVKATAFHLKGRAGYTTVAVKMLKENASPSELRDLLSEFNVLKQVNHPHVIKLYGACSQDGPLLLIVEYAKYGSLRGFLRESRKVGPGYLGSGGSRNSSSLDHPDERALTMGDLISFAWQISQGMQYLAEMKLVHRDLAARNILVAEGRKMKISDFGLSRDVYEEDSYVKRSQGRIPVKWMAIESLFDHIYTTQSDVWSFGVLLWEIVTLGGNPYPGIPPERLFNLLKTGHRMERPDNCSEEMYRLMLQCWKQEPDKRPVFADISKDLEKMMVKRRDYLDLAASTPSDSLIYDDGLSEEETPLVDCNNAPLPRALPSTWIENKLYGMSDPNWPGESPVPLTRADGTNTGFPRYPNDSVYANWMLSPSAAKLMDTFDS

As to `COc1ncccc1CN1CCN(c2ccc(-c3cc(-c4cnn(C)c4)cn4ncc(C#N)c34)cn2)CC1` [Example 452, 4-(6-(4-((2-methoxypyridin-3-yl)methyl)piperazin-1-yl)pyridin-3-yl)-6-(1-methyl-1H-pyrazol-4-yl)pyrazolo[1,5-a]pyridine-3-carbonitrile], the IC50 – broadly, the concentration needed to halve the response being measured – in experiment [1] (setting [4]) is 12.1 nM; in experiment [2] (wild type RET, 1 mM ATP) it was 10 nM; in experiment [3], 844 nM.
For the molecule `CN(C)C(=O)CN1CCN(c2ccc(-c3cc(-c4cnn(C)c4)cn4ncc(C#N)c34)cn2)CC1` [Example 143, 2-(4-(5-(3-cyano-6-(1-methyl-1H-pyrazol-4-yl)pyrazolo[1,5-a]pyridin-4-yl)pyridin-2-yl)piperazin-1-yl)-N,N-dimethylacetamide 2,2,2-trifluoroacetate], the IC50 in experiment [1] (setting [5]) is 69.8 nM; in experiment [2] it was 34.1 nM; in experiment [3] (10% FBS), 1800 nM.
`CC(C)C(=O)N1CCN(c2ccc(-c3cc(-c4cnn(C)c4)cn4ncc(C#N)c34)cn2)CC1` [Example 66, 4-(6-(4-isobutyrylpiperazin-1-yl)pyridin-3-yl)-6-(1-methyl-1H-pyrazol-4-yl)pyrazolo[1,5-a]pyridine-3-carbonitrile]: the IC50 in experiment [1] (setting [5]) was 25.4 nM; in experiment [2] (wild type RET, 1 mM ATP) it was 14.1 nM; in experiment [3] (10% FBS) it was 911 nM.
For the molecule `CO[C@@H](C)CN1CCN(c2ccc(-c3cc(-c4cnn(C)c4)cn4ncc(C#N)c34)cn2)CC1` [Example 415, (S)-4-(6-(4-(2-methoxypropyl)piperazin-1-yl)pyridin-3-yl)-6-(1-methyl-1H-pyrazol-4-yl)pyrazolo[1,5-a]pyridine-3-carbonitrile], the IC50 stood at 25.4 nM in experiment [1] (setting [4]); 25.2 nM in experiment [2] (wild type RET, 1 mM ATP); 2030 nM in experiment [3].
For `CCCC(=O)N1CCN(c2ccc(-c3cc(-c4cnn(C)c4)cn4ncc(C#N)c34)cn2)CC1` [Example 70, 4-(6-(4-butyrylpiperazin-1-yl)pyridin-3-yl)-6-(1-methyl-1H-pyrazol-4-yl)pyrazolo[1,5-a]pyridine-3-carbonitrile], the IC50 in experiment [1] (setting [5]) was 18.5 nM; in experiment [2] (wild type RET, 1 mM ATP), 8.4 nM; in experiment [3] (10% FBS), 510 nM.
`CC(C)C(=O)NC1CCN(c2ccc(-c3cc(-c4cnn(C)c4)cn4ncc(C#N)c34)cn2)CC1` [Example 185, N-(1-(5-(3-cyano-6-(1-methyl-1H-pyrazol-4-yl)pyrazolo[1,5-a]pyridin-4-yl)pyridin-2-yl)piperidin-4-yl)isobutyramide]: the IC50 in experiment [1] (setting [5]) stood at 14.3 nM; in experiment [2] (wild type RET, 1 mM ATP) it was 11.5 nM; in experiment [3] (10% FBS) it was 628 nM.
Take `CCN(CC)C(=O)N1CCN(c2ccc(-c3cc(-c4cnn(C)c4)cn4ncc(C#N)c34)cn2)CC1` [Example 98, 4-(5-(3-cyano-6-(1-methyl-1H-pyrazol-4-yl)pyrazolo[1,5-a]pyridin-4-yl)pyridin-2-yl)-N,N-diethylpiperazine-1-carboxamide]: the IC50 in experiment [1] (setting [5]) turned out to be 13 nM; in experiment [2] (wild type RET, 1 mM ATP) it was 3.6 nM; in experiment [3] (10% FBS), 1600 nM.
Turning to `CCC1(C(=O)NCC(C)(C)O)CCN(c2ccc(-c3cc(-c4cnn(C)c4)cn4ncc(C#N)c34)cn2)CC1` [Example 258, 1-(5-(3-cyano-6-(1-methyl-1H-pyrazol-4-yl)pyrazolo[1,5-a]pyridin-4-yl)pyridin-2-yl)-4-ethyl-N-(2-hydroxy-2-methylpropyl) piperidine-4-carboxamide], the IC50 in experiment [1] (setting [5]) was 10 nM; in experiment [2] (wild type RET, 1 mM ATP) it was 12.5 nM; in experiment [3] (10% FBS) it was 505 nM.
As to `CN(C)C(=O)CCN1CCN(c2ccc(-c3cc(-c4cnn(C)c4)cn4ncc(C#N)c34)cn2)CC1` [Example 146, 3-(4-(5-(3-cyano-6-(1-methyl-1H-pyrazol-4-yl)pyrazolo[1,5-a]pyridin-4-yl)pyridin-2-yl)piperazin-1-yl)-N,N-dimethylpropanamide 2,2,2-trifluoroacetate], the IC50 in experiment [1] is 29 nM; in experiment [2] (wild type RET, 1 mM ATP) it was 12.3 nM; in experiment [3] (10% FBS), 736 nM.
With `COC(CNC(=O)C1CCN(c2ccc(-c3cc(-c4cnn(C)c4)cn4ncc(C#N)c34)cn2)CC1)C(C)C` (stereo not drawn) [Example 236, 1-(5-(3-cyano-6-(1-methyl-1H-pyrazol-4-yl)pyrazolo[1,5-a]pyridin-4-yl)pyridin-2-yl)-N-(2-methoxy-3-methylbutyl)piperidine-4-carboxamide], the half-inhibitory concentration (IC50) stood at 3.2 nM in experiment [1] (setting [5]); 4 nM in experiment [2] (wild type RET, 1 mM ATP); 477 nM in experiment [3] (10% FBS).
Turning to `Cn1cc(-c2cc(-c3ccc(N4CCC(O)(C(F)(F)F)CC4)nc3)c3c(C#N)cnn3c2)cn1` [Example 510, 4-(6-(4-hydroxy-4-(trifluoromethyl)piperidin-1-yl)pyridin-3-yl)-6-(1-methyl-1H-pyrazol-4-yl)pyrazolo[1,5-a]pyridine-3-carbonitrile 2,2,2-trifluoroacetate], the IC50 in experiment [1] (setting [4]) was found to be 9.6 nM; in experiment [2] it was 6.7 nM; in experiment [3], 323 nM.
As to `Cn1cc(-c2cc(-c3ccc(N4CCN(C(=O)[C@H](O)C(F)(F)F)CC4)nc3)c3c(C#N)cnn3c2)cn1` [Example 61, (S)-6-(1-methyl-1H-pyrazol-4-yl)-4-(6-(4-(3,3,3-trifluoro-2-hydroxypropanoyl)piperazin-1-yl)pyridin-3-yl)pyrazolo[1,5-a]pyridine-3-carbonitrile], the IC50 in experiment [1] (setting [5]) turned out to be 5.5 nM; in experiment [2] (wild type RET, 1 mM ATP), 5.5 nM; in experiment [3] (10% FBS), 148 nM.
`COCCN(C)C(=O)N1CCN(c2ccc(-c3cc(-c4cnn(C)c4)cn4ncc(C#N)c34)cn2)CC1` [Example 130, 4-(5-(3-cyano-6-(1-methyl-1H-pyrazol-4-yl)pyrazolo[1,5-a]pyridin-4-yl)pyridin-2-yl)-N-(2-methoxyethyl)-N-methylpiperazine-1-carboxamide 2,2,2-trifluoroacetate]: the IC50 in experiment [1] amounted to 33 nM; in experiment [2] (wild type RET, 1 mM ATP) it was 20.8 nM; in experiment [3] (10% FBS), 2250 nM.
Turning to `CC(C)Cn1cc(-c2cc(-c3ccc(N4CCN(Cc5ccccc5)CC4)nc3)c3c(C#N)cnn3c2)cn1` [Example 612, 4-(6-(4-benzylpiperazin-1-yl)pyridin-3-yl)-6-(1-isobutyl-1H-pyrazol-4-yl)pyrazolo[1,5-a]pyridine-3-carbonitrile], the IC50 came to 5.2 nM in experiment [1] (setting [4]); 38.2 nM in experiment [2] (wild type RET, 1 mM ATP); 431 nM in experiment [3].
`CCC1(C(=O)NCCC(F)(F)F)CCN(c2ccc(-c3cc(-c4cnn(C)c4)cn4ncc(C#N)c34)cn2)CC1` [Example 255, 1-(5-(3-cyano-6-(1-methyl-1H-pyrazol-4-yl)pyrazolo[1,5-a]pyridin-4-yl)pyridin-2-yl)-4-ethyl-N-(3,3,3-trifluoropropyl)piperidine-4-carboxamide]: the IC50 in experiment [1] (setting [5]) is 7.3 nM; in experiment [2] (wild type RET, 1 mM ATP), 9.1 nM; in experiment [3] (10% FBS), 1090 nM.
On to `Cn1cc(-c2cc(-c3ccc(N4CCNCC4)nc3)c3c(Cl)cnn3c2)cn1` [Example 326, 3-chloro-6-(1-methyl-1H-pyrazol-4-yl)-4-(6-(piperazin-1-yl)pyridine-3-yl)pyrazolo[1,5-a]pyridine dihydrochloride], for which the half-inhibitory concentration (IC50) is 70.4 nM in experiment [1]; 75 nM in experiment [2] (wild type RET, 1 mM ATP); 579 nM in experiment [3] (10% FBS).
Consider `C[C@@H](O)C(=O)N1CCN(c2ccc(-c3cc(-c4cnn(C)c4)cn4ncc(C#N)c34)cn2)CC1` [Example 32, (R)-4-(6-(4-(2-hydroxypropanoyl)piperazin-1-yl)pyridin-3-yl)-6-(1-methyl-1H-pyrazol-4-yl)pyrazolo[1,5-a]pyridine-3-carbonitrile], for which the IC50 worked out at 108 nM in experiment [1] (setting [5]); 23.9 nM in experiment [2] (wild type RET, 1 mM ATP); 749 nM in experiment [3] (10% FBS).
Turning to `CN(C)CC(=O)N1CCN(c2ccc(-c3cc(-c4cnn(C)c4)cn4ncc(Cl)c34)cn2)CC1` [Example 328, 1-(4-(5-(3-chloro-6-(1-methyl-1H-pyrazol-4-yl)pyrazolo[1,5-a]pyridin-4-yl)pyridin-2-yl)piperazin-1-yl)-2-(dimethylamino)ethanone], the IC50 in experiment [1] (setting [5]) was found to be 60.4 nM; in experiment [2] (wild type RET, 1 mM ATP) it was 62.1 nM; in experiment [3] (10% FBS), 1370 nM.
On to `C[C@@H](O)C(=O)NC1CCN(c2ccc(-c3cc(-c4cnn(C)c4)cn4ncc(C#N)c34)cn2)CC1` [Example 181, (R)-N-(1-(5-(3-cyano-6-(1-methyl-1H-pyrazol-4-yl)pyrazolo[1,5-a]pyridin-4-yl)pyridin-2-yl)piperidin-4-yl)-2-hydroxypropanamide], for which the IC50 in experiment [1] (setting [5]) was determined as 109 nM; in experiment [2] (wild type RET, 1 mM ATP), 10.5 nM; in experiment [3] (10% FBS), 1200 nM.
As for `COC[C@H](O)CN1CCN(c2ccc(-c3cc(-c4cnn(C)c4)cn4ncc(C#N)c34)cn2)CC1` [Example 151, (R)-4-(6-(4-(2-hydroxy-3-methoxypropyl)piperazin-1-yl)pyridin-3-yl)-6-(1-methyl-1H-pyrazol-4-yl)pyrazolo[1,5-a]pyridine-3-carbonitrile], the IC50 came to 70.4 nM in experiment [1] (setting [5]); 44 nM in experiment [2] (wild type RET, 1 mM ATP); 1430 nM in experiment [3] (10% FBS).
For `Cn1cc(-c2cc(-c3ccc(N4CCN(C(=O)CNC(C)(C)C)CC4)nc3)c3c(C#N)cnn3c2)cn1` [Example 22, 4-(6-(4-(2-(tert-butylamino)acetyl)piperazin-1-yl)pyridin-3-yl)-6-(1-methyl-1H-pyrazol-4-yl)pyrazolo[1,5-a]pyridine-3-carbonitrile dihydrochloride], the IC50 in experiment [1] was determined as 22.5 nM; in experiment [2] (wild type RET, 1 mM ATP), 14.8 nM; in experiment [3] (10% FBS), 630 nM.
